What was measured:
PI3Kα kinase = biological target: T1, PI3Kα kinase (Homo sapiens, UniProt P42336); assay: PI3Kα assay (32P incorporation into phosphatidylinositol, TLC densitometry); assay type: biochemical; details: At 100 nM
T1 construct: purchased Millipore, USA
Method: The assay was designed as in the reference, Cell, 2006, 125, 733-47 (Supplemental Data), the disclosure of which is incorporated by reference for the teaching of the assay.
The kinase reaction was carried out in a 25 μL volume in a 1.5 mL microcentrifuge tube. The reaction mixture consisted of kinase buffer (10 mM Hepes, pH 7.5, 50 mM MgCl2), 20 ng PI3Kα kinase (Millipore, USA), 12.5 μg phosphatidylinositol (PI), 10 μM ATP and 1 μCi ^32γ P dATP. Compounds of Example 1-40 were added at concentrations (stock solution was prepared in DMSO and subsequent dilutions were made in kinase buffer) as mentioned in the table. The reaction mixture was incubated at 30° C. for 20 minutes and was terminated by adding 1:1 mixture of MeOH and chloroform. The tube contents were mixed on a vortex mixer and centrifuged at 10000 rpm for 2 minutes. 10 μL of the organic (lower) phase was spotted on to a TLC plate (silica, mobile phase: n-propanol and 2 M glacial acetic acid in 65:35 ratio). The plates were dried and exposed to an X-ray film. The bands appearing as a result of ^32γ P incorporation in PI were quantitated using the QuantityOne (BioRad, USA) densitometry program. PI-103 (Calbiochem, USA) was used as a standard.

PI3K α = assay: PI3K activity assay, cell-based ELISA of AKT (Ser 473) phosphorylation; details: Homo sapiens, Ovarian cell line A2780, 20% FCS stimulation
Method: The assay was designed as in the reference, Biochemical Journal, 2000, 350, 717-722, the disclosure of which is incorporated by reference for the teaching of the assay.
Seed cells (Ovarian cell line A2780, ATCC) were plated in a 96 well microtitre plate at a density of 50,000 cells/cm^2 in appropriate complete cell culture medium. The cells were allowed to adhere for 18-24 hours. The cells were allowed to starve for 24 hours. The cells were pretreated (in triplicates) with the compounds of Example 1-40 (stock solution was prepared in DMSO and subsequent dilutions were made in kinase buffer) at a concentration of 10 μM for one hour. Then the cells were stimulated with 20% FCS for 30 minutes. A typical assay would consist of a set of unstimulated cells, a set of stimulated cells and a set of cells treated with compounds of Example 1-40 and a set of cells treated with the stimulator. The medium was discarded. The cells were fixed with 100 μL of 3.7% formaldehyde for 15 minutes. The formaldehyde was discarded by inverting the plate and tapping it on a thick tissue paper layer to remove traces. The cells were washed and permeabilized with 200 μL PBS+Triton-X 100 solution (hereafter referred to as PBS-Triton, containing 0.1% triton-X 100 in 1×PBS) three times, incubating the cells each time for 5 minutes. 100 μL blocking solution (10% FCS in PBS-Triton) was added and incubated for 1 hour at 25° C. The blocking solution was discarded and cells were incubated with the primary antibody in PBS-Triton at a dilution of 1:500 for 1 hour at RT (25° C.). [The primary antibody is Phospho-AKT (Ser 473); Cell Signaling; USA, Cat. No. 9271]. The primary antibody solution was discarded and the cells were washed 3 times with PBS-Triton solution and incubated with the HRP-conjugated secondary antibody in PBS-Triton at a dilution of 1:500 for 1 hour at RT (25° C.). The cells were washed 3 times with PBS-Triton followed by two washes with PBS (to remove traces of triton-X 100). The OPD (o-phenylene diamine dihydrochloride) substrate was prepared for detection of the signal by dissolving one tablet set (two tablets) of SigmaFast OPD (Sigma, USA, Cat No. P9187) in 20 mL distilled water. It should be kept protected from light. 100 μL OPD solutions was added to the wells and the plate was incubated in the dark for 3-5 minutes (depending upon the development of the color). The reaction was stopped by adding 50 μL 2 NH2SO4. The absorbance was measured at 490 nm. The values were expressed in the treated samples, in terms of percentage or fold decrease in AKT phosphorylation with respect to the induced sample. PI-103 (Calbiochem, USA) was used as a standard.

H460 = assay: Cytotoxicity, propidium iodide assay, H460; assay type: cell-based; details: Homo sapiens, NCI-H460; Lung, H460, 48 hours treatment; read-out: IC50, C1b (H460)
Method: (§1) The assay was designed as in the reference, Anticancer Drugs, 2002, 13, 1-8, the disclosure of which is incorporated by reference for the teaching of the assay.
(§2) Cells from cell lines as mentioned in the table given below were seeded at a density of 3000 cells/well in a white opaque 96-well plate. Following incubation at 37° C./5% CO2 for a period of 18-24 hours, the cells were treated with various concentrations (stock solution was prepared in DMSO and subsequent dilutions were made in media as per ATCC guidelines) of the compounds of Example 1-40 was for a period of 48 hours. At the end of treatment, the spent culture medium was discarded, the cells were washed with 1×PBS and 200 μl of 7 μg/ml propidium iodide was added to each well. The plates were frozen at −70° C. for at least 24 hours. For analysis, the plates were brought to RT, allowed to thaw and were read in PoleStar fluorimeter with the fluorescence setting. The percentage of viable cells in the non-treated set of wells was considered to be 100 and the percentage viability following treatment was calculated accordingly. IC50 values were calculated from graphs plotted using these percentages. Table 4 depicts the IC50 values of compounds of Example 1-40 in individual cell lines.
(§3) The abbreviations for the Cell Lines as used in Table 4 are: […]

PC3 = assay: Cytotoxicity, propidium iodide assay, PC3; assay type: cell-based; details: Homo sapiens, PC-3; Prostate, PC3, 48 hours treatment; read-out: IC50, C2a (PC3)
Method: as §1, §2, §3

A2780 = assay: Cytotoxicity, propidium iodide assay, A2780; assay type: cell-based; details: Homo sapiens; Ovarian, A2780, 48 hours treatment; read-out: IC50, C3a (A2780)
Method: as §1, §2, §3

OVCAR 3 = assay: Cytotoxicity, propidium iodide assay, OVCAR 3; assay type: cell-based; details: Homo sapiens; Ovarian, OVCAR 3, 48 hours treatment; read-out: IC50, C3b (OVCAR 3)
Method: as §1, §2, §3

U 373 = assay: Cytotoxicity, propidium iodide assay, U 373; assay type: cell-based; details: Homo sapiens, U373 MG; Glioblastoma, U 373, 48 hours treatment; read-out: IC50, C7a (U 373)
Method: as §1, §2, §3

IL-6 = assay: Human monocyte assay, LPS-stimulated IL-6 (ELISA); assay type: cell-based; details: human monocytes, 1 μg/ml LPS, 5 hours
Method: (§4) The assay was designed as in the reference, Physiol. Res., 2003, 52, 593-598, the disclosure of which is incorporated by reference for the teaching of the assay.
(§5) Peripheral blood mononuclear cells (hPBMC) were harvested from human blood and suspended in RPMI 1640 culture medium containing 10% FCS, 100 U/mL penicillin and […] streptomycin (assay medium). Monocytes in the hPBMCs were counted using a Coulter Counter following which the cells were resuspended at 2×10^5 monocytes/mL. A cell suspension containing 2×10^4 monocytes was aliquoted per well of a 96-well plate. Subsequently, the hPBMCs were incubated for 4-5 hours at 37° C. under 5% CO2 (During the incubation, the monocytes adhered to the bottom of 96-well plastic culture plate). Following the incubation, the non-adherent lymphocytes were washed with assay medium and the adherent monocytes re-fed with assay medium. After a 48-hour incubation period (37° C., 5% CO2), monocytes were pretreated with various concentrations of compounds of Example 1-40 (prepared in DMSO) or vehicle (0.5% DMSO) for 30 minutes and stimulated with 1 μg/ml LPS (Escherchia coli 0111:B4, Sigma Chemical Co., St. Louis, Mo.). The incubation was continued for 5 hours at 37° C., 5% CO2. Supernatants were harvested, assayed for IL-6 and TNF-α by ELISA as described by the manufacturer (BD Biosciences, USA). Dexamethasone (10 μM) was used as standard for this assay. The 50% inhibitory concentration (IC50) values were calculated by a nonlinear regression method. In all experiments, a parallel plate was run to ascertain the toxicity of compounds of Example 1-40. The toxicity was determined using the MTS assay as described in Am. J. Physiol. Cell Physiol., 2003, 285, C813-C822.

TNF-α = assay: Human monocyte assay, LPS-stimulated TNF-α (ELISA); assay type: cell-based; details: human monocytes, 1 μg/ml LPS, 5 hours, read-out: TNFα (IC50)
Method: as §4, §5

A549 = assay: Cytotoxicity, propidium iodide assay, A549; assay type: cell-based; details: Homo sapiens; Lung, A549, 48 hours treatment; read-out: IC50, C1a (A549)
Method: as §1, §2, §3

HCT116 = assay: Cytotoxicity, propidium iodide assay, HCT116; assay type: cell-based; details: Homo sapiens, HCT-116; Colon, HCT116, 48 hours treatment; read-out: IC50, C4a (HCT116)
Method: as §1, §2, §3

AsPC 1 = assay: Cytotoxicity, propidium iodide assay, AsPC 1; assay type: cell-based; details: Homo sapiens, ASPC1; Pancreatic, AsPC 1, 48 hours treatment; read-out: IC50, C5b (AsPC 1)
Method: as §1, §2, §3

BxPC3 = assay: Cytotoxicity, propidium iodide assay, BxPC3; assay type: cell-based; details: Homo sapiens, BXPC-3; Pancreatic, BxPC3, 48 hours treatment; read-out: IC50, C5c (BxPC3)
Method: as §1, §2, §3

MDA MB 468 = assay: Cytotoxicity, propidium iodide assay, MDA MB 468; assay type: cell-based; details: Homo sapiens; Breast, MDA MB 468, 48 hours treatment; read-out: IC50, C6b (MDA MB 468)
Method: as §1, §2, §3

BT 549 = assay: Cytotoxicity, propidium iodide assay, BT 549; assay type: cell-based; details: Homo sapiens; Breast, BT 549, 48 hours treatment; read-out: IC50, C6d (BT 549)
Method: as §1, §2, §3

T1 sequence (P42336 whole entry): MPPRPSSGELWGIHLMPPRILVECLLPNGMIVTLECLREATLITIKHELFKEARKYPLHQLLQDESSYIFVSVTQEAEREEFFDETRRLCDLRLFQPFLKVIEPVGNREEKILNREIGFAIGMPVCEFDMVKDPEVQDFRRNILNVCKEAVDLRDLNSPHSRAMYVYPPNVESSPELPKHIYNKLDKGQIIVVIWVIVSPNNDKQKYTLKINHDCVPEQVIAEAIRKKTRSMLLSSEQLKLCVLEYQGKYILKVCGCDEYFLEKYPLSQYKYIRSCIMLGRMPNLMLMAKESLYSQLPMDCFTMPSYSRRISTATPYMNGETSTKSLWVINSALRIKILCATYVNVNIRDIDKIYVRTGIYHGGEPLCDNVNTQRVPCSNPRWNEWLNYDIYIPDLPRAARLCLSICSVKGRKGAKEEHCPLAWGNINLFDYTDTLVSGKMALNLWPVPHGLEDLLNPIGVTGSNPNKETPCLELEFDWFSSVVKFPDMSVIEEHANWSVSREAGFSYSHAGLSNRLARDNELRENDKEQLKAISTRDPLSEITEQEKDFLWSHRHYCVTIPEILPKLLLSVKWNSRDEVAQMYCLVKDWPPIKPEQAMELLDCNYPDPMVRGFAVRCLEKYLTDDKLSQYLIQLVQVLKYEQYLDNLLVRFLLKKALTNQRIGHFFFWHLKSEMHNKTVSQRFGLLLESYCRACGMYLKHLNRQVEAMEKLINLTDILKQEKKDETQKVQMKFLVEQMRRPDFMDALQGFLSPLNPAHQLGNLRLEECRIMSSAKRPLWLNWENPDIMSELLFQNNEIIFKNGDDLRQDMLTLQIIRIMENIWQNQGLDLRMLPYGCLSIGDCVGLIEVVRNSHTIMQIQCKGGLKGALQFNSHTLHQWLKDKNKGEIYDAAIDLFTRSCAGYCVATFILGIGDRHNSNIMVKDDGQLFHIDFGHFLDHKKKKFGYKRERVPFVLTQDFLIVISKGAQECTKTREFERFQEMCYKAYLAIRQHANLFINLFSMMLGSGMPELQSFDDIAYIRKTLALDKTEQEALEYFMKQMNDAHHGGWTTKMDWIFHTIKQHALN
T1 sequence (P27986 whole entry partner): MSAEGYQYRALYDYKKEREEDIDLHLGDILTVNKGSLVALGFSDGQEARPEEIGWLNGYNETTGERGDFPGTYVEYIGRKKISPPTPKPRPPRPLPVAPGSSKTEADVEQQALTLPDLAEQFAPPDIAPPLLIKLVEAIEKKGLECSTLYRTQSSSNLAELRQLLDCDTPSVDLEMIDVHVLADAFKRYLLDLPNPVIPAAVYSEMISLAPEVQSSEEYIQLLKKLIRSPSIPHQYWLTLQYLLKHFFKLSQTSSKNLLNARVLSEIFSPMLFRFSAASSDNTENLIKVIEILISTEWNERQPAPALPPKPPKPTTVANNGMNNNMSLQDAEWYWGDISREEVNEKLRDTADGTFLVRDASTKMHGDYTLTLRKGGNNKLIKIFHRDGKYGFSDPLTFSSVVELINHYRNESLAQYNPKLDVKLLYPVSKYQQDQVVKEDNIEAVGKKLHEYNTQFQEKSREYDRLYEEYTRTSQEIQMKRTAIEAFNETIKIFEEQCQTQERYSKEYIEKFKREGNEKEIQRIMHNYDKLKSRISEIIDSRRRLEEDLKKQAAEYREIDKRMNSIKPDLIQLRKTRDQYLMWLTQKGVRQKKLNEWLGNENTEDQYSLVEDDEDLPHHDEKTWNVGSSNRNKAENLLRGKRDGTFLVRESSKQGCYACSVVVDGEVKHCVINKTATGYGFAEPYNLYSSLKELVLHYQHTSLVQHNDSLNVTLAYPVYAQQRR

| inhibition at 0.1 µM (PI3Kα kinase) | IC50 (IL-6) | IC50 (TNF-α) | SMILES | inhibition at 10 µM (PI3K α) | IC50 (H460) | IC50 (PC3) | IC50 (A2780) | IC50 (OVCAR 3) | IC50 (U 373) | IC50 (A549) | IC50 (HCT116) | IC50 (AsPC 1) | IC50 (BxPC3) | IC50 (MDA MB 468) | IC50 (BT 549) |
| --- | --- | --- | --- | --- | --- | --- | --- | --- | --- | --- | --- | --- | --- | --- | --- |
| 10 to 50% | 1 to 10 µM | ≤ 1 µM | CC(C)(C#N)c1ccc(-n2c(=O)n(S(=O)(=O)c3ccccc3C#N)c3cnc4ccc(Br)cc4c32)cc1 [Example 2, 2-(8-Bromo-1-(4-(2-cyanopropan-2-yl)phenyl)-2-oxo-1H-imidazo[4,5-c]quinolin-3 (2H)-ylsulfonyl)benzonitrile] | 10 to 50% | ≤ 1 µM | ≤ 1 µM | ≤ 1 µM | 1 to 3 µM | > 3 µM | – | – | – | – | – | – |
| 10 to 50% | 1 to 10 µM | – | CC(C)(C#N)c1ccc(-n2c(=O)n(S(=O)(=O)c3ccc(F)cc3F)c3cnc4ccc(Br)cc4c32)cc1 [Example 17, 2-(4-(8-Bromo-3-(2,4-difluorophenylsulfonyl)-2-oxo-2,3-dihydro-1H-imidazo[4,5-c]quinolin-1-yl)phenyl)-2-methylpropanenitrile] | > 50% | 1 to 3 µM | 1 to 3 µM | ≤ 1 µM | – | – | 1 to 3 µM | 1 to 3 µM | 1 to 3 µM | 1 to 3 µM | – | – |
| 10 to 50% | 1 to 10 µM | – | CC(C)(C#N)c1ccc(-n2c(=O)n(S(C)(=O)=O)c3cnc4ccc(Br)cc4c32)cc1 [Example 18, 2-(4-(8-Bromo-3-(methylsulfonyl)-2-oxo-2,3-dihydro-1H-imidazo[4,5-c]quinolin-1-yl)phenyl)-2-methylpropanenitrile] | – | ≤ 1 µM | 1 to 3 µM | ≤ 1 µM | – | – | 1 to 3 µM | 1 to 3 µM | 1 to 3 µM | 1 to 3 µM | – | – |
| – | – | – | Cc1cccc(S(=O)(=O)n2c(=O)n(-c3ccc(C(C)(C)C#N)cc3)c3c4cc(Cl)ccc4ncc32)c1 [Example 19, 2-(4-(8-Chloro-2-oxo-3-(m-tolylsulfonyl)-2,3-dihydro-1H-imidazo[4,5-c]quinolin-1-yl)phenyl)-2-methylpropanenitrile] | – | 1 to 3 µM | 1 to 3 µM | – | > 3 µM | – | ≤ 1 µM | > 3 µM | – | > 3 µM | – | – |
| – | > 30 µM | – | CC(=O)c1ccc(S(=O)(=O)n2c(=O)n(-c3ccc(C(C)(C)C#N)cc3)c3c4cc(C)ccc4ncc32)cc1 [Example 25, 2-(4-(3-(4-Acetylphenylsulfonyl)-8-methyl-2-oxo-2,3-dihydro-1H-imidazo[4,5-c]quinolin-1-yl)phenyl)-2-methylpropanenitrile] | – | > 3 µM | > 3 µM | > 3 µM | – | – | > 3 µM | – | – | – | > 3 µM | > 3 µM |
